Measurements published in paper PMC7904559, “QSAR and molecular docking for the search of AOX inhibitors: a rational drug discovery approach” (Journal of Computer-Aided Molecular Design, 2020).
Read-outs that look alike come from different tables or passages of the source.

How the values were obtained:
[1] = target: trypanosome alternative oxidase (TAO) (Trypanosoma brucei brucei, UniProt Q26710); test: biochemical
[2] = system: cytochrome bc1 complex; details: cited from earlier work
[3] = target: alternative oxidase of Trypanosoma brucei (TAO); details: cited from earlier work; for pIC50 Exp.: training set, calculated as -log IC50
[4] = system: T. vivax; details: T. vivax-infected mouse; single intramuscular dose of 50 mg/kg or 6 mg/kg on 4 consecutive days; cited from earlier work
[5] = parameters: method as in PMID 30693533; details: cited from earlier work
[6] = IC50, recombinant AOX expressed in E. coli membranes, mean ± SD of n = 3 isolations, 37 °C, pH 7.4, 1.25 mM NADH, 1 mM KCN
[7] = pIC50 Exp, external validation set, -log IC50 of values measured by respirometry
[8] = read-out: IC50 (50% inhibitory concentration), against TAO
[9] = wild type TAO, Table 2, read-out: IC50

Chain of trypanosome alternative oxidase (TAO) (Q26710 whole entry): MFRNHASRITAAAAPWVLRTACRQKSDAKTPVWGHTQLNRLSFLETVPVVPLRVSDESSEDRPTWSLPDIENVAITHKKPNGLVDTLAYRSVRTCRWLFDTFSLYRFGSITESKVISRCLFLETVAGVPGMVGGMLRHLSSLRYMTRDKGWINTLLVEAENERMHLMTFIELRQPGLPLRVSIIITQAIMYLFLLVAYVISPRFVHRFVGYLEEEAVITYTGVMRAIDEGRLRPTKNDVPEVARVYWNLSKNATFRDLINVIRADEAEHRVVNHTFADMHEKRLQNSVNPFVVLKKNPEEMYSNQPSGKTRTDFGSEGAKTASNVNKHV

| SMILES | IC50 [3, 8] [nM] | pIC50 Exp. [3] | also measured |
| --- | --- | --- | --- |
| CC(/C=C/[C@@]1(C)[C@H](C)CCC(=O)[C@@H]1C)=C\Cc1c(O)c(Cl)c(C)c(C=O)c1O [Ascochlorin] | – | – | IC50 [1, 6]: ~7 nM; IC50 [1, 7]: 7.4 nM; inhibition of cytochrome bc1 complex [2]: potent inhibitor |
| CC(=O)OC(C)/C(C)=C/CC/C(C)=C/Cc1c(O)c(Cl)c(C)c(C=O)c1O (stereo not shown) [Compound 3] | 1.4 | 8.854 | – |
| CC(=O)c1c(C)c(Cl)c(O)c(C/C=C(\C)CCC=C(C)C)c1O [Compound 16] | – | 9.824 | IC50 [3, 9]: 0.15 nM |
| CCCCCCCCc1c(O)c(Cl)c(C)c([N+](=O)[O-])c1O [Compound 20] | 0.45 | 9.347 | – |
| CCCCCCCCOC(=O)c1cc(O)c(O)c(O)c1 [Octyl gallate] | – | – | IC50 [1, 7]: 230 nM |
| COC(=O)c1c(C)c(Cl)c(O)c(C/C=C(\C)CCC=C(C)C)c1O [Compound 18] | 45 | 7.347 | – |
| CCCOC(=O)c1cc(O)c(O)c(O)c1 [Propyl gallate] | – | – | IC50 [1, 6]: 1400 nM; IC50 ([1]; external validation set, -log IC50 of values measured by respirometry, read-out: pIC50 Exp (converted)): 1400 nM; IC50 [3, 9]: 200 nM |
| Cc1c(Cl)c(O)c(CCCCCCCC(=O)O)c(O)c1C=O [Compound 12] | 40 | 7.398 | – |
| C/C(=C\Cc1c(O)c(Cl)c(C)c(C=O)c1O)CC/C=C(\C)COC(=O)C(C)(C)C [Compound 1] | 0.4 | 9.398 | – |
| C/C(=C\Cc1c(O)c(Cl)c(C)c(C=O)c1O)CC/C=C(\C)[C@@H]1CC(=O)C(C)(C)O1 [Ascofuranone] | – | – | treatment outcome [4]: successful treatment; blood clearance [5]: rapid; oral bioavailability [5]: low; inhibition of mammalian cytochrome bc1 complex ([2]; mammalian, concluded from survival of mice following AF treatment): not an effective inhibitor |
| COc1c(Cl)c(C)c(C=O)c(O)c1C/C=C(\C)CC/C=C(\C)C1CC(=O)C(C)(C)O1 (stereo not shown) [Compound 29] | 4 | 8.398 | – |
| CC(=O)c1c(C)c(Cl)c(O)c(C/C=C(\C)CC/C=C(\C)C2CC(=O)C(C)(C)O2)c1O (stereo not shown) [Compound 14] | 2.5 | 8.602 | – |
| C/C=C/c1c(O)c(Cl)c(C)c(C=O)c1O [Compound 7a] | – | 7.000 | – |
| CCC/C=C/c1c(O)c(Cl)c(C)c(C=O)c1O [Compound 7b] | 3.8 | 8.420 | – |
| CC(=O)c1c(C)c(Cl)c(O)c(C/C=C(\C)CC/C=C(\C)COC(=O)C(C)(C)C)c1O [Compound 15] | 0.7 | 9.155 | – |
| CC(C)=CCC/C(C)=C/CC/C(C)=C/Cc1c(O)c2ccccc2oc1=O [Ferulenol] | – | – | IC50 [1, 7]: 53.1 nM |
| CC(C)=CCC/C(C)=C/Cc1c(O)c(Cl)cc(C=O)c1O [Compound 26] | 0.23 | 9.638 | – |
| CC(C)=CCC/C(C)=C/Cc1c(O)ccc(C=O)c1O [Compound 28] | 38 | 7.420 | – |
| C/C(=C\Cc1c(O)c(Cl)cc(C=O)c1O)CC/C=C(\C)C1CC(=O)C(C)(C)O1 (stereo not shown) [Compound 25] | 0.45 | 9.347 | – |
| CC(C)=CCC/C(C)=C/Cc1c(O)c(Cl)c(C)c(C=O)c1O [Colletochlorin B] | – | – | IC50 [3, 9]: 0.2 nM |
| C/C(=C\Cc1c(O)c(Cl)c(C)c(/C=N\O)c1O)CC/C=C(\C)C1CC(=O)C(C)(C)O1 (stereo not shown) [Compound 17] | 28 | 7.553 | – |
| Cc1c(Cl)c(O)c(CCCCCCCCO)c(O)c1C=O [Compound 11] | 6 | 8.222 | – |
| CC(C)=CCC/C(C)=C/Cc1c(O)cc(C)c(C=O)c1O [Compound 27] | 0.5 | 9.301 | – |
| C/C(=C\CC/C(C)=C/Cc1c(O)c(Cl)c(C)c(C=O)c1O)CO [Compound 2] | 1.2 | 8.921 | – |
| CC(C)=CCc1c(O)c(Cl)c(C)c(C=O)c1O [Colletochlorin D] | – | – | IC50 [1, 7]: 33 nM |
